{"source": "patent US20250114336A1", "about": "“USE OF ANTI-RETROVIRAL PROTEASE INHIBITORS FOR THE TREATMENT OF AMYOTROPHIC LATERAL SCLEROSIS (ALS)” (The Regents of the University of Colorado, a body corporate, priority 2023, published 2025)", "molecular_target": "T1, human PEG10 (Homo sapiens, UniProt Q86TG7)", "T1 construct": "expressed in transfected cells; host or cells: HEK293", "T1 sequence (Q86TG7 1-708)": "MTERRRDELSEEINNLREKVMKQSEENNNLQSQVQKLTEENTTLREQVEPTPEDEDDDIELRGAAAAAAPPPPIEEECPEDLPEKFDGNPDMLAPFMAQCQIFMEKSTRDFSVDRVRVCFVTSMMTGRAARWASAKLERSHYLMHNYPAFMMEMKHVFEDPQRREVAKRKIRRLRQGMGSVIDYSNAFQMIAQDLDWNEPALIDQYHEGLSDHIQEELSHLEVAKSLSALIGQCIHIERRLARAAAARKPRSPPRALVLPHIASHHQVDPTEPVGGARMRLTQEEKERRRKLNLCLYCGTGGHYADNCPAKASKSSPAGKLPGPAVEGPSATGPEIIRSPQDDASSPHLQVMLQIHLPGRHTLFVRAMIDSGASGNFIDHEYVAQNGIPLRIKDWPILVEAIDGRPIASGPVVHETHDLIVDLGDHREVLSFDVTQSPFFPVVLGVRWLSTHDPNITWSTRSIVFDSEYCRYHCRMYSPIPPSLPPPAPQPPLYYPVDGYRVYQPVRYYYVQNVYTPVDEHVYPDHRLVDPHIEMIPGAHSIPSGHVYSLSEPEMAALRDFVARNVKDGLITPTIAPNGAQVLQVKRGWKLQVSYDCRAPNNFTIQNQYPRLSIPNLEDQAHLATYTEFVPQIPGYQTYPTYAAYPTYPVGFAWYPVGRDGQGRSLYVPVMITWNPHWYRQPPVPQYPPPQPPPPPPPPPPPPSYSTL", "test": "Western blot of PEG10 abundance and self-cleavage in HEK293 cells transfected with human PEG10", "assay_type": "cell-based", "conditions": "HEK293 cells transfected with WT human PEG10, incubated 24 hours with increasing concentrations of drug (up to 50 uM), compared to untreated", "description": "FIG. 1: Western blot of PEG10 self-cleavage testing with antiretroviral compounds. HEK293 cells were transfected with either WT or a cleavage-incompetent mutant form of human PEG10 and incubated for 24 hours with the indicated concentrations of drug. After 24 hours, cells were lysed and imaged by western blot.\nFIG. 2A-D: PEG10 abundance is decreased by ritonavir, but not indinavir. a-d) Bands identified in FIG. 1 were quantified and normalized to Tubulin for a) gag-pol, b) gag, c) CA fragment, and d) CA^NTD fragment. Shown is mean+/−SEM for four representative experiments; one sample from untreated indinavir and 50 uM of indinavir and ritonavir were not collected. Statistics were measured by One-way ANOVA with multiple comparisons to untreated; statistically significant comparisons are shown with asterisks. ANOVA summary significance is shown with straight line.\nShown is mean+/−SEM for four representative experiments; one sample from untreated indinavir and 50 uM of indinavir and ritonavir were not collected. Statistics were measured by One-way ANOVA with multiple comparisons to untreated; statistically significant comparisons are shown with asterisks. ANOVA summary significance is shown with straight line.\nApplicants performed an assay using western blot to assess self-cleavage of transfected PEG10 (FIG. 1) with a negative control where the PEG10 protease is mutated. […]", "note": "“Also recorded” adds a separate entry of the source."}
{"compound": "CC(C)c1nc(CN(C)C(=O)N[C@H](C(=O)N[C@@H](Cc2ccccc2)C[C@H](O)[C@H](Cc2ccccc2)NC(=O)OCc2cncs2)C(C)C)cs1", "note": "[ritonavir]", "values": [{"measurement": "PEG10 abundance (expression in the cell; bands normalized to Tubulin: gag-pol, gag, CA fragment, CA NTD fragment)", "value": "decreased; also recorded: uniquely decreases PEG10 expression"}, {"measurement": "Self-cleavage of PEG10 (ratios gag-pol to gag, CA fragment to gag, CA NTD fragment to gag)", "value": "modestly affected; also recorded: modest effect"}]}
